Each compound was assayed on Mus musculus (assay: Percent inhibition of blood glucose concentration measured 30 min after 10 mg/kg dosing to fasted mice followed 15 min later by 1 g/kg oral glucose load).
Type: functional

SMILES | inhibition in vivo at 10 mg/kg [%]
N[C@H](C(=O)N1CC(F)C(F)C1)C1CCCCC1 (stereo partly specified) | 60
N[C@H](C(=O)N1CCC(F)(F)C1)C1CCCCC1 | 78
N[C@H](C(=O)N1CC(F)(F)C(F)(F)C1)C1CCCCC1 | 59
N[C@H](C(=O)N1CC(F)C1)C1CCCCC1 | 70
N[C@H](C(=O)N1CCCC1)C1CCCCC1 | 69
N[C@H](C(=O)N1CC(F)(F)C1)C1CCCCC1 | 109

From ChEMBL document CHEMBL1143465, “New fluorinated pyrrolidine and azetidine amides as dipeptidyl peptidase IV inhibitors” (Bioorg Med Chem Lett, 2005)
